Laboratory results from US9694072B2, “Methods for diagnosing and treating neuroendocrine cancer” (Trustees of Dartmouth College, priority 2005, dated 2017).
Like-named read-outs stand apart in the source and are kept apart here.

Tests used:
[1] = system: NCI-H82 variant SCLC cells; assay: Cell growth/viability assay (Alamar Blue); format: cell-based, human; settings: for IC50: read-out: IC50, cell viability; for Cell viability reduced to: NCI-H82, 24, 48, and 72 hours incubation
Description: (§3) Cultures of NCI-H345, NCI-H146, DMS-53 cells (classical cell lines), and NCI-H82 cells (variant cell line) were treated with 0.05% trypsin, washed in phosphate buffered saline (PBS)/glycine and plated onto 96-well plates at 10^4 cells/well in medium for 24 hours to provide time for rectifying possible damage to membrane proteins from the trypsinization. […] Fluorescent readings were taken at periods representing 24, 48, and 72 hours of incubation with antagonist using a Synergy HT Multi-Detection Microplate Reader and excitation/emission wavelengths of 530 nm and 590 nm. Cell viability was evaluated as % vehicle control at the corresponding incubation time.

[2] = system: NCI-H345 classical SCLC cells; assay: Cell growth/viability assay (Alamar Blue)
Description: Cultures of NCI-H345, NCI-H146, DMS-53 cells (classical cell lines), and NCI-H82 cells (variant cell line) were treated with 0.05% trypsin, washed in phosphate buffered saline (PBS)/glycine and plated onto 96-well plates at 10^4 cells/well in medium for 24 hours to provide time for rectifying possible damage to membrane proteins from the trypsinization. The wells were washed and incubated with PBS/glycine containing albumin (1.25 mg/mL) in the presence or absence of different concentrations (25 μM-800 μM) of either the NMDAR 1 antagonists, Memantine or MK-801; or the NMDAR2B antagonists Ifenprodil and Ro 25-6981 (binders to the polyamine site), or the NMDAR2B antagonists L-701,252 and L-701,324 (binders to the glycine site), or vehicle; and Alamar Blue (1:10 dilution following manufacturer's recommendation). Fluorescent readings were taken at periods representing 24, 48, and 72 hours of incubation with antagonist using a Synergy HT Multi-Detection Microplate Reader and excitation/emission wavelengths of 530 nm and 590 nm. Cell viability was evaluated as % vehicle control at the corresponding incubation time.
This peptide domain is represented in that portion of the mRNA message sequenced by RT-PCR. For studies on cell proliferation, the IgGs of this antiserum were first isolated by precipitation with 50% saturated ammonium sulfate, and antibodies purified from these immunoglobulins by affinity chromatography using a column containing the peptide component of the above antigen coupled to SEPHAROSE (Friedmann, et al. (1994) supra; Keegan, et al. (2002) supra).

[3] = system: NCI H82 variant small-cell cancer cell xenografts; assay: NCI H82 xenografts treated with ifenprodil; format: in vivo, nu/nu mice
Description: Male nu/nu mice were injected subcutaneously with NCI H82 variant small-cell cancer cells (˜10^7 cells/mouse) representing recurrent disease, and tumors became obvious after 2-3 weeks, and commenced growing rapidly. Animals were divided into two groups.
In another set of experiments, NCI H82 tumors were pretreated with cyclophosphamide for three days (single dose of 75 mg/kg body weight) before a single daily dose of i.p. ifenprodil (2.5 mg/kg) commenced.

DMS-53 cells = assay: Cell growth/viability assay (Alamar Blue); format: cell-based, human; settings: for effect on cell viability (in words): DMS-53, 48 hours, concentration range used
Description: as §3

[4] = system: human LA-N2 neuroblastoma cells; settings: in the presence of glycine; cited from earlier work
[5] = system: human LA-N-2 neuroblastoma cells; settings: cited from earlier work
NCI-H146 cells = assay: Cell growth/viability assay (Alamar Blue); format: cell-based, human
Description: as §3

[6] = system: MCF-7 breast cancer cells; assay: Alamar Blue growth/proliferation study; format: cell-based, human; settings: for effect on cell growth/proliferation (in words): MCF-7, in the presence of glycine over 24 hours
LAN2 neuroblastoma cells = assay: Alamar Blue growth study; format: cell-based, human; settings: LAN2, in the presence of glycine over 24 hours
Description: (§1) Results represent triplicate studies performed with Alamar Blue on LAN2 neuroblastoma, MCF-7 breast cancer, and SKBr3 breast cancer cells examining the growth influence of 1 mM glutamate in the presence of glycine over 24 hours.
(§2) Results represent triplicate studies performed with Alamar Blue on LAN2 neuroblastoma, MCF-7 breast cancer, and SKBr3 breast cancer cells examining the growth influence of 100 mM Mg^++ in the presence of glycine over 24 hours.

[7] = system: SKBr3 breast cancer cells; assay: Alamar Blue growth/proliferation study; format: cell-based, human; settings: for effect on cell growth/proliferation (in words): SKBr3, in the presence of glycine over 24 hours
Description: as §1, §2

[8] = Homo sapiens, NCI-H82, 48 and 72 hours of incubation, Alamar Blue (figure legend)
[9] = Homo sapiens, NCI-H82, at 48 hours
[10] = Homo sapiens, NCI-H345, 48 h, read-out: IC50, cell viability
[11] = Homo sapiens, NCI-H345, read-out: IC50, cell viability
[12] = 2.5 mg/kg once daily intraperitoneally

**Q.** For CC(C(O)c1ccc(O)cc1)N1CCC(Cc2ccccc2)CC1 (centres unmarked) [Ifenprodil], which IC50 [1, 8] is on record?
**A.** 150 to 200 µM

**Q.** And the IC50 [1, 9]?
**A.** ~150 µM

**Q.** What about the “Cell viability reduced to” value [1] of the same compound?
**A.** about 10 % of control

**Q.** And the “Cell viability reduced to” value [2]?
**A.** about 10 % of control

**Q.** And the IC50 [2, 10]?
**A.** ~150 µM

**Q.** What about the IC50 [2, 11] of the same compound?
**A.** 150 to 200 µM

**Q.** What about the “time tumors maintained sizes of less than their original size” value [3, 12] of the same compound?
**A.** ~10 days

**Q.** And the “tumor size by 2 weeks of treatment” value [3, 12]?
**A.** < 2 times their original size

**Q.** And the “tumors first shrank to” value [3, 12]?
**A.** ~80 % of their original size

**Q.** And the “tumor growth vs saline-treated control mice (in words)” value ([3]; ifenprodil alone)?
**A.** inhibits the growth

**Q.** What about the “body weight compared to saline-treated animals” value ([3]; over 8 days of drug treatment) of the same compound?
**A.** no change in body weight

**Q.** What about the “effect on cell viability (in words)” value (DMS-53 cells) of the same compound?
**A.** smaller decreases

**Q.** Which results are given for O=c1[nH]c2cc(Cl)ccc2c(O)c1-c1cccc(Oc2ccccc2)c1 [L-701,324]?
**A.** increase in cell viability to ([1]; NCI-H82, at 48 hours): approximately 120 % of control; increase in cell viability to ([2]; NCI-H345, at 48 hours): approximately 140 % of control

**Q.** With NC(=O)c1ccccc1C(=O)N[C@@H](CCC(=O)O)C(=O)O [NPG, N-phthalamoyl-L-glutamic acid] as the compound, how does the “inward sodium current increased” value [4] read?
**A.** 1.5 ×

**Q.** What about the Cell cytotoxicity increased ([5]; incubation at 0.1 mM) of the same compound?
**A.** 28%

**Q.** What about the Cell cytotoxicity increased ([5]; incubation at 1 mM) of the same compound?
**A.** 46%

**Q.** For CC(C(O)c1ccc(O)cc1)N1CCC(Cc2ccccc2)CC1 (centres unmarked) [Ro 25-6981], which IC50 ([1]; NCI-H82, at 48 hours) is on record?
**A.** ~200 µM

**Q.** What about the IC50 ([2]; read-out: IC50, cell viability, NCI-H345, at 48 hours) of the same compound?
**A.** ~200 µM

**Q.** What about the “effect on cell viability (in words)” value (NCI-H146 cells; NCI-H146, 48 hours, concentration range used) of the same compound?
**A.** no clear effects

**Q.** And the “effect on cell viability (in words)” value (DMS-53 cells; listed as Ro 25-698)?
**A.** no clear effects

**Q.** With N[C@@H](CCC(=O)O)C(=O)O [glutamate, L-glutamic acid] as the compound, how does the “inward sodium current increased” value [4] read?
**A.** 1.5 ×

**Q.** What about the “effect on cell growth/proliferation (in words)” value [6] of the same compound?
**A.** increased proliferation

**Q.** And the “effect on cell growth/proliferation (in words)” value (LAN2 neuroblastoma cells)?
**A.** decreased cell growth

**Q.** And the “effect on cell growth/proliferation (in words)” value [7]?
**A.** increased proliferation

**Q.** And the Cell cytotoxicity increased ([5]; incubation at 1 mM)?
**A.** 27%

**Q.** And the Cell cytotoxicity increased ([5]; incubation at 10 mM)?
**A.** 37%

**Q.** For [Mg+2] [magnesium], which “effect on cell growth/proliferation (in words)” value [6] is on record?
**A.** significantly inhibited proliferation

**Q.** And the “effect on cell growth/proliferation (in words)” value (LAN2 neuroblastoma cells)?
**A.** significantly inhibited proliferation

**Q.** And the “effect on cell growth/proliferation (in words)” value [7]?
**A.** significantly inhibited proliferation

**Q.** Which results are given for CC12CC3CC(C)(C1)CC(N)(C3)C2 [memantine]?
**A.** Proliferation of MCF-7 Cells Percent Fluorescence Compared to Control ([6]; 100 μM, 24 Hours): 92.86 ± 6.08%; Proliferation of MCF-7 Cells Percent Fluorescence Compared to Control ([6]; 100 μM, 48 Hours): 89.98 ± 5.30%; Proliferation of MCF-7 Cells Percent Fluorescence Compared to Control ([6]; 100 μM, 72 Hours): 88.48 ± 4.02%; Proliferation of MCF-7 Cells Percent Fluorescence Compared to Control ([6]; 200 μM, 24 Hours): 73.51 ± 5.64%; Proliferation of MCF-7 Cells Percent Fluorescence Compared to Control ([6]; 200 μM, 48 Hours): 49.78 ± 6.85%; Proliferation of MCF-7 Cells Percent Fluorescence Compared to Control ([6]; 200 μM, 72 Hours): 46.62 ± 7.04%; Proliferation of MCF-7 Cells Percent Fluorescence Compared to Control ([6]; 300 μM, 24 Hours): 48.81 ± 5.18%; Proliferation of MCF-7 Cells Percent Fluorescence Compared to Control ([6]; 300 μM, 48 Hours): 22.33 ± 5.21%; Proliferation of MCF-7 Cells Percent Fluorescence Compared to Control ([6]; 300 μM, 72 Hours): 20.02 ± 4.97%; Proliferation of MCF-7 Cells Percent Fluorescence Compared to Control ([6]; 400 μM, 24 Hours): 39.62 ± 5.21%; Proliferation of MCF-7 Cells Percent Fluorescence Compared to Control ([6]; 400 μM, 48 Hours): 15.79 ± 4.79%; Proliferation of MCF-7 Cells Percent Fluorescence Compared to Control ([6]; 400 μM, 72 Hours): 14.38 ± 3.92%; Proliferation of MCF-7 Cells Percent Fluorescence Compared to Control ([6]; 500 μM, 24 Hours): 38.40 ± 2.98%; Proliferation of MCF-7 Cells Percent Fluorescence Compared to Control ([6]; 500 μM, 48 Hours): 14.60 ± 3.21%; Proliferation of MCF-7 Cells Percent Fluorescence Compared to Control ([6]; 500 μM, 72 Hours): 13.40 ± 3.29%; Proliferation of MCF-7 Cells Percent Fluorescence Compared to Control ([6]; 600 μM, 24 Hours): 39.22 ± 4.13%; Proliferation of MCF-7 Cells Percent Fluorescence Compared to Control ([6]; 600 μM, 48 Hours): 15.10 ± 7.28%; Proliferation of MCF-7 Cells Percent Fluorescence Compared to Control ([6]; 600 μM, 72 Hours): 13.66 ± 6.62%; Proliferation of MCF-7 Cells Percent Fluorescence Compared to Control ([6]; 700 μM, 24 Hours): 32.80 ± 2.19%; Proliferation of MCF-7 Cells Percent Fluorescence Compared to Control ([6]; 700 μM, 48 Hours): 12.51 ± 2.35%; Proliferation of MCF-7 Cells Percent Fluorescence Compared to Control ([6]; 700 μM, 72 Hours): 11.89 ± 2.62%; Proliferation of MCF-7 Cells Percent Fluorescence Compared to Control ([6]; 800 μM, 24 Hours): 32.82 ± 2.44%; Proliferation of MCF-7 Cells Percent Fluorescence Compared to Control ([6]; 800 μM, 48 Hours): 12.34 ± 2.01%; Proliferation of MCF-7 Cells Percent Fluorescence Compared to Control ([6]; 800 μM, 72 Hours): 11.82 ± 2.25%; Proliferation of MCF-7 Cells Percent Fluorescence Compared to Control ([6]; 900 μM, 24 Hours): 32.23 ± 2.13%; Proliferation of MCF-7 Cells Percent Fluorescence Compared to Control ([6]; 900 μM, 48 Hours): 12.03 ± 2.15%; Proliferation of MCF-7 Cells Percent Fluorescence Compared to Control ([6]; 900 μM, 72 Hours): 11.57 ± 2.41%; reduce proliferation by ([6]; MCF-7, 0.3 mM, 48 and 72 hours): about 80%; effect on proliferation (in words) ([6]; MCF-7, NMDAR1 antagonist treatment): decreased the proliferation; effect on proliferation (in words) ([7]; SKBr3, NMDAR1 antagonist treatment): decreased the proliferation; IC50 [1, 8]: 80 to 100 µM; IC50 [1, 9]: 80 to 130 µM; Cell viability reduced to [1]: about 10 % of control; Cell viability reduced to [2]: about 10 % of control; IC50 [2, 10]: 80 to 130 µM; IC50 [2, 11]: 80 to 100 µM; IC50 (NCI-H146 cells; Homo sapiens, NCI-H146, at 48 hours, read-out: IC50, cell viability): 400 µM; IC50 (DMS-53 cells; Homo sapiens, DMS-53, at 48 hours, read-out: IC50, cell viability): 800 µM
